Reference: the supplement of paper PMC10307832

Columns and labels:
Assay in all cases: relative viability (nuclei count vs DMSO), 5 days (fraction); higher = more cells survive
[1] = compound: CC[C@@H](C)CNCC(=O)N1CCC2=C([C@@H]1COC3=CC=CC(=C3)C)C=CS2 [RU-SKI 43] + CC(=O)c1c(C)c2cnc(Nc3ccc(N4CCNCC4)cn3)nc2n(C2CCCC2)c1=O [Palbociclib] (partner 0.5 µM)
Method in brief: (§1)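 A single step with final 0.05% Triton X-100, 1% formaldehyde and 1 ug/ml Hoechst fixed the cells and stained nuclei 5 days after treatment. Lung cancer cell lines in 1536-well plates had been treated by pin tool the day after seeding with one drug alone or a fixed anchor-drug dose plus five library-drug doses (not always all listed) in √10 steps, and nuclei were counted on 4× images. Relative viability is the ratio of nuclei in treated wells to nuclei in vehicle wells, taken as the median of duplicate plates.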

[2] = compound: CCc1c2c(nc3ccc(OC(=O)N4CCC(N5CCCCC5)CC4)cc13)-c1cc3c(c(=O)n1C2)COC(=O)[C@]3(O)CC [Irinotecan] + N=C(N)NC(=N)NCCc1ccccc1 [Phenformin] (partner 250 µM)
Method in brief: as §1

[3] = compound: CCc1c2c(nc3ccc(OC(=O)N4CCC(N5CCCCC5)CC4)cc13)-c1cc3c(c(=O)n1C2)COC(=O)[C@]3(O)CC [Irinotecan] + O=C(c1cc(Cc2n[nH]c(=O)c3ccccc23)ccc1F)N1CCN(C(=O)C2CC2)CC1 [Olaparib] (partner 8 µM)
Method in brief: as §1

[4] = compound: Cn1cc(-c2cnc3ccc4ccc(CS(=O)(=O)NCc5ccccn5)cc4c(=O)c3c2)cn1 [MK-8033] + N=C(N)NC(=N)NCCc1ccccc1 [Phenformin] (partner 250 µM)
Method in brief: as §1

Cell Line | relative viability ([1]; first compound 0.1 µM) | relative viability ([1]; first compound 0.3162 µM) | relative viability ([1]; first compound 1 µM) | relative viability ([1]; first compound 3.162 µM) | relative viability ([1]; first compound 10 µM) | relative viability ([2]; first compound 0.6325 µM) | relative viability ([2]; first compound 2 µM) | relative viability ([2]; first compound 6.325 µM) | relative viability ([2]; first compound 20 µM) | relative viability ([3]; first compound 0.6325 µM) | relative viability ([3]; first compound 2 µM) | relative viability ([3]; first compound 6.325 µM) | relative viability ([3]; first compound 20 µM) | relative viability ([4]; first compound 0.02 µM) | relative viability ([4]; first compound 0.06325 µM) | relative viability ([4]; first compound 0.6325 µM) | relative viability ([4]; first compound 2 µM) | relative viability ([4]; first compound 0.2 µM)
LC-2-ad | 0.509 | 0.579 | 0.532 | 0.514 | 0.445 | 0.444 | 0.529 | 0.324 | 0.197 | 0.389 | 0.337 | 0.282 | 0.24 | 0.605 | 0.515 | 0.592 | 0.589 | –
NCI-H2085 | 0.514 | 0.444 | 0.467 | 0.48 | 0.461 | 0.662 | 0.702 | 0.559 | 0.478 | 0.583 | 0.433 | 0.423 | 0.408 | 0.736 | 0.554 | 0.703 | 0.674 | 0.694
